The source of these data is patent publication US12673034B2, “Peptides, compounds, compositions and methods for inhibiting SOX9” (CRITICAL OUTCOME TECHNOLOGIES INC., priority 2019, dated 2026).

The target of series [1] is T1, SOX9 (Rattus norvegicus, UniProt F1LYL9).
T1 construct: endogenous in cells; host or cells: primary rat astrocyte cultures
T1 sequence (F1LYL9 1-507): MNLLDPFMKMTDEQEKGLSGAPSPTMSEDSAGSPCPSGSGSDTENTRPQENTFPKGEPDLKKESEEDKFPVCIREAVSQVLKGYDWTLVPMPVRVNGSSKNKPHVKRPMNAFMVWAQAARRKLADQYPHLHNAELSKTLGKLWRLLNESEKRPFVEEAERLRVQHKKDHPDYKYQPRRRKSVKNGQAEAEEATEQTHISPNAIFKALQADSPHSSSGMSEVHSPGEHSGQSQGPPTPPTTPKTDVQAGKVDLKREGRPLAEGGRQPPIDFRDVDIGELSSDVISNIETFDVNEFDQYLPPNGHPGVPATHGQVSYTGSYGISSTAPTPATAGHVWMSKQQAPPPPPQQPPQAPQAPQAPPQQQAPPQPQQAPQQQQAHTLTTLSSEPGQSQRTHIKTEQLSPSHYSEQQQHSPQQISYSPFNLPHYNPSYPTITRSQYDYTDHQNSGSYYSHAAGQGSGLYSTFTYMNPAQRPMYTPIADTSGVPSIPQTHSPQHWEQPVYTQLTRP
The series can be described thus: Q-PCR of SOX9 and SOX9 target gene expression in primary rat astrocyte cultures. The format is cell-based. Conditions: 10 μM. The protocol: FIG. 2 graphically depicts results from treatment of two-week old rat astrocytes for 48 h (hours) with 10 μM SOX-DIMER (white), which show decreased SOX9 target gene expression compared to control (FLAG-Tat) peptide-treated cultures (black) (* indicates statistical significance P<0.05, two-tailed t-test; N=4);
Primary astrocyte cultures were treated with 10 μM SOX-DIMER peptide or of a control peptide (FLAG-Tat) for 48 h and then harvested RNA.
(§1) To identify small molecule inhibitors of SOX9 design efforts focused on the septameric peptide sequence (IREAVSQ, SEQ ID NO:1, underlined in the SOX-DIMER sequence given above) identified as a subregion of the known SOX9 dimerization domain with a high likelihood of direct participation in dimerization. This prediction was based on the position of the human mutation that causes the skeletal but not the sex reversal abnormalities of campomelic dyskplasia (Bernard et al 2003). A computational screen of ˜12 million compounds was performed to identify small molecules predicted to interfere with SOX9 dimerization, based on the physical-chemical properties of the SOX-DIMER peptide motif.

The test system of series [2] is CSPG levels in the injured rat spinal cord. Nature of the series: CSPG levels in injured rat spinal cord, biotinylated-WFA staining. Conditions: T9 200 kdyne SCI, intrathecal pump approximately 400 μg/Kg/day for 4 weeks, sections caudal to the lesion, vs vehicle. The series is classed as in vivo. The protocol: To assess the effect of compound 1 on CSPG levels in the injured rat spinal cord, compound 1 or vehicle was delivered by an intrathecal pump delivering compound 1 at approximately 400 μg/Kg/day for 4 weeks starting immediately after a 200 kdyne T9 thoracic SCI. This dose was predicted to result in a concentration of compound 1 of between 10 and 30 μM based on an estimated cerebrospinal fluid volume of 580 μL (Murtha et al 2014) and a turnover rate of about 12-13 times per day (Simon et al 1995).

Another series concerns spinal cord injured rats. Nature of the series: Locomotor recovery (hind limb function, open field test, BBB score) after thoracic SCI. Conditions: rat, T9 200 kdyne SCI, intrathecal approximately 400 μg/Kg/day. The series is classed as in vivo. The procedure: In a longer-term study, compound 1 (approximately 400 μg/Kg/day) or vehicle was again delivered intrathecally to rats immediately after a T9, 200 kdyne SCI, and hind limb function was evaluated twice per week by an observer blinded to treatment group in an open field test for […] (FIG. 5). […] By day 56 the compound 1-treated rats achieved average locomotor BBB scores (Basso et al 1995) of 12.4±0.8 indicating consistent weight supported plantar placement and occasional forelimb/hind limb coordination while the vehicle-treated rats only achieved an average locomotor BBB score of 10.4±0.7, indicating occasional weight supported planter placement with no forelimb/hind limb coordination.

Series [3] is described as follows: Spinal cord concentration after intravenous injection, UPLC coupled to mass spectrometry. The format is in vivo, rat. The procedure:
Compound 1 was delivered intrathecally as it was initially unknown the inhibitory compound could cross the blood brain barrier. To resolve this issue a subsequent study was carried out in which control and T9 spinal cord injured rats were given intravenous injections of compound 1 (1 or 10 nmol/g) or of vehicle at 24 and 48 h after SCI and sacrificed 24 h later. […] Compound 1 was even found in the spinal cords after dosing uninjured controls (FIG. 6).
Using a standard curve, the concentration of compound 1 in the injured spinal cord after a 10 nmol/g iv injection was determined to be 2.7 μM at the lesion epicenter, 1.9 μM in the lumbar cord and 1.02 μM in the uninjured cord.

Series [4] addresses T2, SOX9 (Mus musculus, UniProt Q04887).
T2 sequence (Q04887 1-507): T1 sequence (F1LYL9 1-507) with S314T, P368Q, Q369P, N427S, T432P, T441A
The series can be described thus: SOX9 target gene expression in chondrogenic cell line ATDC5. Further details: in the chondrogenic cell line ATDC5; endogenous in cells; host or cells: ATDC5 chondrogenic cell line. The series is classed as cell-based.
Source text: as §1
Some of the inhibitor compounds were also tested on ATDC5 cells for their effect on SOX9 target gene expression by q-PCR (aggrecan data is shown in FIG. 11) and on LX-2 (human hepatocyte (stellate cells) cells for collagen gene expression (associated with liver fibrosis), as shown in FIG. 12.

Series [5] has as its target T2, SOX9. Nature of the series: SOX9 target gene expression in primary mouse astrocyte cultures. The format is cell-based. Further details: primary mouse and rat astrocyte cultures; endogenous in cells; host or cells: primary mouse astrocyte cultures. The note with it: primary mouse astrocyte cultures (FIG. 3).

Where a chain is given by its changes, count along the chain named. Like-named read-outs stand apart in the source and are kept apart here.

For `COc1ccc(C(=O)N2CCN(C)CC2)cc1NC(=O)COc1cc(C)ccc1C(C)C` [compound 1], the “SOX9 target gene expression” value on SOX9 [1] (primary rat astrocyte cultures, 48 h vs vehicle (FIG. 3)) is on record as “decrease SOX9 target gene expression”; at SOX9 [4] it was “decrease SOX9 target gene expression”; at SOX9 [5], “decrease SOX9 target gene expression”. Moreover, in series [2], the “reduction in CSPG levels (WFA staining)” value was found to be 3 fold. Moreover, the “average locomotor BBB score” value with spinal cord injured rats (day 56) was found to be 12.4±0.8. Moreover, the “hind limb function in open field test” value in the series with spinal cord injured rats (vs vehicle) was “statistically significant improvement”. In addition, the concentration at 24 h after the last injection in series [3] (lesion epicenter, T9 spinal cord injured rat, 10 nmol/g iv at 24 and 48 h after SCI, sacrificed 24 h later, read-out: concentration in spinal cord at the lesion epicenter) worked out at 2700 nM; in series [3] (lumbar enlargement (distal to the lesion), T9 spinal cord injured rat, 10 nmol/g iv at 24 and 48 h after SCI, sacrificed 24 h later, read-out: concentration in the lumbar cord), 1900 nM; in series [3] (uninjured spinal cord, uninjured control rat, 10 nmol/g iv, read-out: concentration in the uninjured cord), 1020 nM. For the same compound, the “reduction of spinal cord concentrations after 1 nmol/g relative to 10 nmol/g” value in series [3] (rat, 1 nmol/g iv injections) came out at 10 fold. Besides, the “penetration of the blood-spinal cord barrier” value in series [3] (rat, 10 nmol/g iv, control or spinal cord injured) is on record as “can penetrate the blood-spinal cord barrier”.

As for “SOX-DIMER: fusion between the SOX9 dimerization motif (DKFPVCIREAVSQVLKGYDW, SEQ ID NO. 2) and the protein transduction domain of the HIV-1 Tat protein (DKFPVCIREAVSQVLKGYDWKYGRKKRRQRRR)”, the “expression of SOX9 and SOX9 target genes (XT-1, XT-2, Hapln1, Collagen 2a1, GFAP, aggrecan, brevican)” value with SOX9 [1] (48 h, primary astrocyte cultures, vs control peptide FLAG-Tat, Q-PCR (FIG. 2)) is “significantly reducing the expression of SOX9 and SOX9 target genes”.
